Measured values from patent US8354400B2, “Benzoxazole compounds and methods of use” (Eisai R&D Co., Ltd., priority 2008, dated 2013).
Read-outs that look alike come from different tables or passages of the source.

How the values were obtained:
Type in all cases: cell-based
human TLR9 = biological target: T1, human TLR9 (Homo sapiens, UniProt Q9NR96); assay: Primary assay: HEK/TLR9 activation (NF-kB luciferase reporter, Oligo CpG 2006 stimulation)
T1 construct: expressed in transfected cells; host or cells: HEK293 (ATCC No. CRP-1573 [sic])
T1 sequence (Q9NR96 26-1032): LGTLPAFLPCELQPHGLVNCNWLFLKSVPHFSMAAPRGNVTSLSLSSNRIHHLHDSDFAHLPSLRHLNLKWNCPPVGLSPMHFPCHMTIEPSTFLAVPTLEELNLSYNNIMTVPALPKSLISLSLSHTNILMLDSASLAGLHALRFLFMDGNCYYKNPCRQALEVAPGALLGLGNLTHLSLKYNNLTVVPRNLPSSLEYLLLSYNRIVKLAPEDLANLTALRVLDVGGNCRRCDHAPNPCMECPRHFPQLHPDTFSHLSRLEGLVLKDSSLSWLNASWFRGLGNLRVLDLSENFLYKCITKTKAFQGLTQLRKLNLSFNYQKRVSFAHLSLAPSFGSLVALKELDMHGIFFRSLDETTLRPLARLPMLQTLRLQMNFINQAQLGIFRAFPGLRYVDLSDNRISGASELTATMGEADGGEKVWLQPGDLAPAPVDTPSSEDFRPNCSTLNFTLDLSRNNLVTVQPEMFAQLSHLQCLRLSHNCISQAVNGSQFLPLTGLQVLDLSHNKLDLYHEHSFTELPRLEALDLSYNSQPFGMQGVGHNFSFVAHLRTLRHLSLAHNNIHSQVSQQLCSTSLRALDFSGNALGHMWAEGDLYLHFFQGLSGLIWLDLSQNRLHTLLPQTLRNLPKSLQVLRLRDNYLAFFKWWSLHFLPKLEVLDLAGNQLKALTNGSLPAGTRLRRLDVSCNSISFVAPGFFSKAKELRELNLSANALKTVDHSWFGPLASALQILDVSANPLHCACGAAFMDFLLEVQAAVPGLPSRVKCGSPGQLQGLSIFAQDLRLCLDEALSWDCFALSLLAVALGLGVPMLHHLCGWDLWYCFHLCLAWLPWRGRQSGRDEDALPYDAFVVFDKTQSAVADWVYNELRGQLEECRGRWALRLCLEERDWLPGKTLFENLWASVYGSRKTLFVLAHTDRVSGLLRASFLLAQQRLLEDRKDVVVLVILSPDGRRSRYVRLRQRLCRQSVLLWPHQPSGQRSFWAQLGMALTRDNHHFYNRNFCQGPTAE
From the text: A. Primary Assay. The primary assay involved transfecting human embryonic kidney epithelial (HEK) cells with TLR9. More specifically, HEK293 […] cells (ATCC No. CRP-1573, American Type Culture Collection, Manassas, Va.) were transfected with pcDNA3.1D/V5-His-TOPO® plasmid (Invitrogen, Carlsbad, Calif.) encoding human TLR9 (directly inserted as a Tag polymerase-amplified PCR product) and firefly luciferase under the control of three NF-kB binding sites contained in the E-selectin-1 promoter, which was cloned into a pGL3-Enhancer Vector (Promega Corp, Madison, Wis.). Each compound was added to cells 30 min. before stimulation with Oligo CpG 2006, a synthetic phosphorothioate oligonucleotide (Hartmann et al., J Immunol. 164:1617-24 (2000)), with nucleotide sequence 5′-TCGTCGTTTTGTCGTTTTGTCGTT-3′ (SEQ ID NO:1). The cells were incubated overnight at 37° C. The luciferase substrate Steady-Glo® (Promega) was added to the wells, and luminescence was measured to determine the extent of TLR9-driven gene activation. The luminescence data was used to calculate an IC50 for each sample. The IC50 is defined as the concentration of compound that suppresses the luminescence to 50% of that observed in the absence of compound, in other words, with full stimulation.

human TLR7 = biological target: T2, human TLR7 (Homo sapiens, UniProt Q9NYK1); assay: HEK/TLR7 activation assay (R848 stimulation); settings: HEK cells transfected with human TLR7
T2 construct: expressed in transfected cells; host or cells: HEK cell line (HEK293, as in the primary assay)
T2 sequence (Q9NYK1 27-1049): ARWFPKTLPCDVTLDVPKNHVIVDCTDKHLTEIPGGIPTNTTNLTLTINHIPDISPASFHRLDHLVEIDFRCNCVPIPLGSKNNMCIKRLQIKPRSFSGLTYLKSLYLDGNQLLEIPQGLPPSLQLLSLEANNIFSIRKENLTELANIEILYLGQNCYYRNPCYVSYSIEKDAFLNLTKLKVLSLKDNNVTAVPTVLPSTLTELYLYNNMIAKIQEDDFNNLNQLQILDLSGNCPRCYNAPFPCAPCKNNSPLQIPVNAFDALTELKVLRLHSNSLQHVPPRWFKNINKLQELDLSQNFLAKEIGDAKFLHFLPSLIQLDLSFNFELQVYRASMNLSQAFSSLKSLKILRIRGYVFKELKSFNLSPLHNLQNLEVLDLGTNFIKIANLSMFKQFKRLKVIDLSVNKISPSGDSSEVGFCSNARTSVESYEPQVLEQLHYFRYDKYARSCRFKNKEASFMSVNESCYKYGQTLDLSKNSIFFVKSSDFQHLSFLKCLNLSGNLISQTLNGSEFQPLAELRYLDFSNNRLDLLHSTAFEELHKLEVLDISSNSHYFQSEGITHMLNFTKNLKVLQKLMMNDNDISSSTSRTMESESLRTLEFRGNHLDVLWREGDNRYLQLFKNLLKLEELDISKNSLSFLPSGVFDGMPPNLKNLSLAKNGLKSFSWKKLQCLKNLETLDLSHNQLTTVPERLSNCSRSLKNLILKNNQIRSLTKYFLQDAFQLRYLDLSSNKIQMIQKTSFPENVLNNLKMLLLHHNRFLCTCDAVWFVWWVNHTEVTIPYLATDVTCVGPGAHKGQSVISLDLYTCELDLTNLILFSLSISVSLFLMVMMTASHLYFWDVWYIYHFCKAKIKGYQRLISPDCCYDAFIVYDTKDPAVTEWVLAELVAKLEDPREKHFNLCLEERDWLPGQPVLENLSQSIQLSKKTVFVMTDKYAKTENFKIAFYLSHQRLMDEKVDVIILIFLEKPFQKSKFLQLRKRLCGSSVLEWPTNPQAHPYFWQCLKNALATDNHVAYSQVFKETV
Protocol: (1) HEK/TLR7Activation Assay: The same compounds were tested in the same way as the primary assay with the following differences. The plasmid used to transfect the HEK cell line encoded for human TLR7 instead of TLR9, and R848 was used to stimulate the cells instead of Oligo CpG 2006.

[1] = test system: dissociated mouse splenocytes; assay: Spleen CellTiter-Glo viability assay; settings: Splenocyte, 72 hours, viability (ATP)
Protocol: (3) Spleen CT Glo Assay: To determine if compounds had adverse effects on living cells, dissociated mouse splenocytes were incubated with some of the compounds for 72 hours. At the end of the incubation Celliter-Glo™ reagent (Promega Corporation, Madison, Wis.) was added and luminescence was read per manufacturer's instructions. This reagent measures ATP as an indication of cell metabolism. Dead cells will not produce signal. IC50 is defined as the concentration of compound that suppresses viability to 50% of that observed in the absence of compound. The few compounds that measurably affected viability did so at concentrations far above those that affected cytokine release in response to TLR9 stimulation.

[2] = test system: mouse spleen IL-6 production in response to Oligo CpG 1668; assay: Splenocyte CpG 1668 assay (IL-6 ELISA); settings: mouse splenocytes, Oligo CpG 1668, 72 hrs
Protocol: (2) Splenocyte CpG 1668 Assay: Some of the compounds tested in the primary assay were also assayed for suppression of mouse spleen IL-6 production in response to stimulation with Oligo CpG 1668, a synthetic phosphorothioate oligonucleotide (Krieg et al. Nature. 374:546-9 (1995)), with nucleotide sequence [NT] (SEQ ID NO:2). Each compound was added to dissociated splenocytes before addition of stimulatory oligonucleotide. Cells were stimulated in culture for 72 hrs and the supernatant was removed for ELISA analysis of IL-6 level. Here the IC50 is defined as the concentration of compound that suppresses cytokine production to 50% of that observed in the absence of compound, i.e., full stimulation.

[3] = HEK293 transfected with human TLR9 and NF-kB luciferase, compound 30 min before Oligo CpG 2006, overnight, read-out: HEK/TLR9 IC50

Row | Compound | IC50 (human TLR9; [3]) | IC50 (human TLR7) | IC50 [1] | IC50 [2] | IC50 (human TLR9; read-out: IC50 in the primary HEK/TLR9 assay)
1 | CN(C)CCOCCN(C)CCCOc1ccc(-c2nc3ccc(OCCCN(C)CCOCCN(C)C)cc3o2)cc1 [Compound 36] | 38 nM | > 2500 nM | – | – | –
2 | c1cc(-c2nc3ccc(OCCCN4CCC[C@H]4CN4CCCC4)cc3o2)ccc1OCCCN1CCC[C@H]1CN1CCCC1 [Compound 24] | 6.4 nM | 600 nM | > 10000 nM | 8 nM | –
3 | CCOCCN1CCN(CCCOc2ccc(-c3nc4ccc(OCCCN5CCN(CCOCC)CC5)cc4o3)cc2)CC1 [Compound 15] | 23.2 nM | 2240 nM | > 10000 nM | – | –
4 | c1cc(-c2nc3ccc(OC4CCNC4)cc3o2)ccc1OC1CCNC1 (stereo not drawn) [Comparator, reference compound] | – | 2690 nM | – | 1020 nM | 160 nM
5 | c1cc(N2CCN(CCCOc3ccc(-c4nc5ccc(OCCCN6CCN(c7ccncc7)CC6)cc5o4)cc3)CC2)ccn1 [Compound 19] | 27.6 nM | 1100 nM | 10000 nM | – | –
6 | CCN(CC)CCN(CC)CCCOc1ccc(-c2nc3ccc(OCCCN(CC)CCN(CC)CC)cc3o2)cc1 [Compound 32] | 9.6 nM | 580 nM | > 10000 nM | 10 nM | –
7 | C1=CCN(CCCOc2ccc(-c3nc4ccc(OCCCN5CC=CCC5)cc4o3)cc2)CC1 [Compound 28] | 12.5 nM | 1550 nM | > 10000 nM | – | –
8 | CN(C)CCCNCCCOc1ccc(-c2nc3ccc(OCCCNCCCN(C)C)cc3o2)cc1 [Compound 9] | 120 nM | 9050 nM | – | – | –
9 | O[C@H]1CC[C@H](NCCCOc2ccc(-c3nc4ccc(OCCCN[C@H]5CC[C@H](O)CC5)cc4o3)cc2)CC1 [Compound 6] | 20.2 nM | 8410 nM | – | – | –
10 | CN(C)CCCOc1cccc(-c2nc3ccc(OCCCN(C)C)cc3o2)c1 [Compound 5] | 11 nM | 2000 nM | – | – | –
11 | CN(C)CCCOc1ccc2nc(-c3ccccc3OCCCN(C)C)oc2c1 [Compound 4] | 12 nM | 1800 nM | – | – | –
12 | COC[C@@H]1CCCN1CCCOc1ccc(-c2nc3ccc(OCCCN4CCC[C@H]4COC)cc3o2)cc1 [Compound 25] | 18.2 nM | – | > 10000 nM | 48 nM | –
